From ChEMBL document CHEMBL4483862, “Open-source discovery of chemical leads for next-generation chemoprotective antimalarials” (2018)

System: Plasmodium berghei
Test: Luciferase/luciferin-expressing antifolate-resistant parasites were used to infect a culture of HepG2 cells that were pre-incubated with compounds. Infected hepatocytes emit light due to the luciferase reaction. Assay results are presented as the percent inhibition of light emission compared to control. […]
Assay type: functional
Settings: sporozoite; for IC50: read-out: LUCIFERASE INFECTION ASSAY - IC50; for IC90: read-out: LUCIFERASE INFECTION ASSAY - IC90

Row | Structure (SMILES) | IC50 | IC90
1 | Cn1c(CNC(=O)c2cc(-c3ccccc3)c(N3CCOCC3)s2)nc2ccccc21 | > 10 µM | > 10 µM
2 | CCOc1ccc(Oc2ccc(Cl)cc2NCC(=O)N(C)CC(=O)NC(C)C)cc1 | > 10 µM | > 10 µM
3 | CC(=O)NCCc1ccc(C(=O)COC(=O)c2cc(C(C)C)cc(C(C)C)c2O)s1 | > 10 µM | > 10 µM
4 | O=S(=O)(Cc1ccccc1)N1CCN(c2ncnc3sc(-c4ccccc4)cc23)CC1 | > 10 µM | > 10 µM
5 | CC(=O)N(c1nc(/C=C2\NC(=S)NC2=O)cs1)c1c(C)cccc1C | 8.24 µM | > 10 µM
6 | COc1ccc(OC)c(C(C)Nc2ncnc3sccc23)c1 (configuration not stated) | 4.28 µM | > 10 µM
7 | CC1CCN(CCCCOc2cccc(Cl)c2)CC1 | > 10 µM | > 10 µM
8 | CCOc1ccc(-c2nnc(SCC(=O)Nc3ccccc3C(=O)NCc3ccccc3)o2)cc1 | 4.44 µM | > 10 µM
9 | O=C(NCc1cn2ccccc2n1)c1cccc(S(=O)(=O)N2CCc3ccccc3C2)c1 | > 10 µM | > 10 µM
10 | COc1ccc(-c2noc(CCCCCNC(=O)c3ccc(-n4cnnn4)cc3)n2)cc1 | > 10 µM | > 10 µM
11 | Cn1cc(/C=C/C(=O)Nc2nc(-c3ccc4c(c3)OCCO4)cs2)cn1 | 9.99 µM | > 10 µM
12 | CN(Cc1nc2ccccc2s1)C(=O)c1cc(-c2ccccc2)c(N2CCOCC2)s1 | > 10 µM | > 10 µM
13 | COc1cc(C(=O)OC(C)C(=O)Nc2sccc2C(N)=O)ccc1C (configuration not stated) | > 10 µM | > 10 µM
14 | CCCCn1nnnc1CSc1nnc(-c2ccccc2F)n1Cc1ccccc1 | > 10 µM | > 10 µM
15 | Cc1cnc(NC(=O)CSCc2cccs2)s1 | > 10 µM | > 10 µM
16 | O=C(CN1CCC(NC(=O)c2cn(-c3ccccc3)nc2-c2cccs2)CC1)Nc1ccccc1 | > 10 µM | > 10 µM
17 | Cc1ccc(NC(=S)N/N=C2\C(=O)Nc3c(C)cc(C)cc32)c(C)c1 | 3.03 µM | 3.68 µM
18 | CC(Oc1ccccc1[N+](=O)[O-])C(=O)N(c1nccs1)C1CCCCC1 (configuration not stated) | > 10 µM | > 10 µM
19 | O=C(Nc1cccc(S(=O)(=O)NC2=NCCC2)c1)c1ccc2nccnc2c1 | > 10 µM | > 10 µM
20 | Cn1cc(Br)cc1C(=O)Nc1ccc2c(c1)OCCO2 | > 10 µM | > 10 µM
21 | N#Cc1ccc(C=C2C(=O)Nc3ccccc3NC2=O)cc1 | > 10 µM | > 10 µM

Row | Structure (SMILES) | IC50 | IC90
22 | C/C=C/c1ccc(OCC(=O)NCc2ccc(S(N)(=O)=O)cc2)c(OC)c1 | > 10 µM | > 10 µM
23 | O=C(Nc1nc2c(s1)CCCC2)c1ccc(Nc2ccccc2)c([N+](=O)[O-])c1 | > 10 µM | > 10 µM
24 | Cc1cc(C)c2c(C)c(C(=O)Nc3cc(S(=O)(=O)N4CCCCC4)ccc3N(C)C)sc2n1 | 6.67 µM | > 10 µM
25 | CC(CCc1ccccc1)NC(=O)CN1CCN(C/C=C/c2ccccc2)CC1 (configuration not stated) | > 10 µM | > 10 µM
26 | COc1ccc(S(=O)(=O)N(C)CC2COc3ccccc3O2)cc1 (configuration not stated) | > 10 µM | > 10 µM
27 | Cc1ccc(-c2csc3ncn(CC(=O)c4cc(C)n(C5CCS(=O)(=O)C5)c4C)c(=O)c23)cc1 (configuration not stated) | > 10 µM | > 10 µM
28 | CC(=O)Nc1ccccc1OCC(=O)NC(=O)NC(C)C1CC2CCC1C2 (configuration not stated) | 5.71 µM | > 10 µM
29 | CN1CCc2nc(NC(=O)C3CCN(c4ncc(C(F)(F)F)cc4Cl)CC3)sc2C1 | > 10 µM | > 10 µM
30 | COC(=O)c1cc(Br)ccc1NC(=O)c1cccc(S(=O)(=O)N(Cc2ccccc2)c2ccccc2Cl)c1 | > 10 µM | > 10 µM
31 | COc1ccc(-c2cc(C(=O)NNC(=O)CC(C)C)[nH]n2)cc1 | > 10 µM | > 10 µM
32 | CC(=O)Nc1cccc(C(=O)Nn2cnc3ccccc3c2=O)c1 | > 10 µM | > 10 µM
33 | Cc1cc2nnc(SC(C)C(=O)Nc3ccc([N+](=O)[O-])cc3C(F)(F)F)n2c2ccccc12 (configuration not stated) | > 10 µM | > 10 µM
34 | CC(c1nc(=O)c2c(-c3ccccc3)csc2[nH]1)N(C)Cc1ccccc1N1CCCC1 (configuration not stated) | > 10 µM | > 10 µM
35 | O=C(COc1cc(N2CCCC2=O)ccc1[N+](=O)[O-])NCc1ccco1 | > 10 µM | > 10 µM
36 | COC(=O)c1cc(OC)c(OC)cc1NC(=O)c1ccc(-c2cccc(Br)c2)nc1C | > 10 µM | > 10 µM
37 | CCN(CC)S(=O)(=O)c1ccc2[nH]c(=O)cc(C(=O)Nc3cc(Cl)c(OC)cc3OC)c2c1 | > 10 µM | > 10 µM
38 | Cc1nc(SCC(=O)c2ccc(N3CCCC3=O)cc2)c2c(C)c(C)sc2n1 | 7.98 µM | > 10 µM
39 | O=C(CSc1nncn1C1CC1)Nc1sc2c(c1C(=O)Nc1ccc(Cl)cc1)CCCC2 | > 10 µM | > 10 µM
40 | CC1(c2ccc3ccccc3c2)NC(=O)N(CC(=O)NC(CN2CCOCC2)c2ccccc2)C1=O (configuration not stated) | > 10 µM | > 10 µM
41 | O=C(NNC(=O)C12CC3CC(CC(C3)C1)C2)c1nn(-c2ccccc2)cc1O | 3.26 µM | 3.89 µM
